# From PubChem BioAssay (NCI)
#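 Briefly, cells in 96-well plates were exposed to five compound concentrations for 48 h, and endpoints were estimated by linear interpolation. Definition used: TGI = concentration required for complete inhibition of growth.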
# Key:
# Assay in all cases: NCI-60 cell line screen, 48 h
# K-562 leukemia = test system: K-562 leukemia
# SK-MEL-5 melanoma = test system: SK-MEL-5 melanoma
# COLO 205 colon = test system: COLO 205 colon
# SK-MEL-2 melanoma = test system: SK-MEL-2 melanoma
# CAKI-1 renal = test system: CAKI-1 renal
# NCI-H460 lung = test system: NCI-H460 lung
# MDA-N = test system: MDA-N
# HT29 colon = test system: HT29 colon
# SF-539 CNS = test system: SF-539 CNS
# EKVX NSCLC = test system: EKVX NSCLC
# ACHN renal = test system: ACHN renal
# U251 CNS = test system: U251 CNS
# RXF 393 renal = test system: RXF 393 renal
# HOP-62 NSCLC = test system: HOP-62 NSCLC
# CCRF-CEM leukemia = test system: CCRF-CEM leukemia
# HCC-2998 colon = test system: HCC-2998 colon
# MDA-MB-435 = test system: MDA-MB-435
# UACC-257 melanoma = test system: UACC-257 melanoma
# UO-31 renal = test system: UO-31 renal
# KM12 colon = test system: KM12 colon
# NCI-H522 lung = test system: NCI-H522 lung
# MDA-MB-231 breast = test system: MDA-MB-231 breast
# TK-10 renal = test system: TK-10 renal
# SF-295 CNS = test system: SF-295 CNS
# IGROV1 ovarian = test system: IGROV1 ovarian
# A498 renal = test system: A498 renal
# OVCAR-5 ovarian = test system: OVCAR-5 ovarian
# M14 melanoma = test system: M14 melanoma
# HOP-92 NSCLC = test system: HOP-92 NSCLC
# 786-0 renal = test system: 786-0 renal
# SF-268 CNS = test system: SF-268 CNS
# HL-60(TB) leukemia = test system: HL-60(TB) leukemia
# DU-145 prostate = test system: DU-145 prostate
# SK-MEL-28 melanoma = test system: SK-MEL-28 melanoma
# RPMI-8226 leukemia = test system: RPMI-8226 leukemia
# HS 578T breast = test system: HS 578T breast
# MCF7 breast = test system: MCF7 breast
# HCT-116 colon = test system: HCT-116 colon
# SNB-19 CNS = test system: SNB-19 CNS
# NCI-H226 lung = test system: NCI-H226 lung
# OVCAR-4 ovarian = test system: OVCAR-4 ovarian
# NCI-H23 lung = test system: NCI-H23 lung
# LOX IMVI melanoma = test system: LOX IMVI melanoma
# PC-3 prostate = test system: PC-3 prostate
# NCI/ADR-RES ovarian = test system: NCI/ADR-RES ovarian
# OVCAR-3 ovarian = test system: OVCAR-3 ovarian
# SK-OV-3 ovarian = test system: SK-OV-3 ovarian
# UACC-62 melanoma = test system: UACC-62 melanoma
# SN12C renal = test system: SN12C renal
# SW-620 colon = test system: SW-620 colon
# SNB-75 CNS = test system: SNB-75 CNS
# A549 NSCLC = test system: A549 NSCLC
# OVCAR-8 ovarian = test system: OVCAR-8 ovarian
# MALME-3M melanoma = test system: MALME-3M melanoma
# BT-549 breast = test system: BT-549 breast
# HCT-15 colon = test system: HCT-15 colon
# T-47D breast = test system: T-47D breast
# SR leukemia = test system: SR leukemia
# MOLT-4 leukemia = test system: MOLT-4 leukemia
smiles,measurement,setting,value
O=[N+]([O-])/C=C/c1c(Cl)cccc1Cl,TGI,K-562 leukemia,8.61 µM
same,TGI,SK-MEL-5 melanoma,8.78 µM
same,TGI,COLO 205 colon,1.76 µM
same,TGI,SK-MEL-2 melanoma,14 µM
same,TGI,CAKI-1 renal,7.86 µM
same,TGI,NCI-H460 lung,21 µM
same,TGI,MDA-N,6.85 µM
same,TGI,HT29 colon,26 µM
same,TGI,SF-539 CNS,5.12 µM
same,TGI,EKVX NSCLC,16.9 µM
same,TGI,ACHN renal,7.49 µM
same,TGI,U251 CNS,9.27 µM
same,TGI,RXF 393 renal,> 21.8 µM
same,TGI,HOP-62 NSCLC,13 µM
same,TGI,CCRF-CEM leukemia,> 18.2 µM
same,TGI,HCC-2998 colon,8.34 µM
same,TGI,MDA-MB-435,4.62 µM
same,TGI,UACC-257 melanoma,10.2 µM
same,TGI,UO-31 renal,13.3 µM
same,TGI,KM12 colon,5.28 µM
same,TGI,NCI-H522 lung,5.95 µM
same,TGI,MDA-MB-231 breast,4.26 µM
same,TGI,TK-10 renal,8.25 µM
same,TGI,SF-295 CNS,14.5 µM
same,TGI,IGROV1 ovarian,10.3 µM
same,TGI,A498 renal,30 µM
same,TGI,OVCAR-5 ovarian,16.2 µM
same,TGI,M14 melanoma,4.87 µM
same,TGI,HOP-92 NSCLC,12.2 µM
same,TGI,786-0 renal,1.52 µM
same,TGI,SF-268 CNS,28.2 µM
same,TGI,HL-60(TB) leukemia,> 100 µM
same,TGI,DU-145 prostate,20.6 µM
same,TGI,SK-MEL-28 melanoma,10.9 µM
same,TGI,RPMI-8226 leukemia,0.514 µM
same,TGI,HS 578T breast,> 62.9 µM
same,TGI,MCF7 breast,3.29 µM
same,TGI,HCT-116 colon,14 µM
same,TGI,SNB-19 CNS,12.1 µM
same,TGI,NCI-H226 lung,50.6 µM
same,TGI,OVCAR-4 ovarian,11.4 µM
same,TGI,NCI-H23 lung,16.8 µM
same,TGI,LOX IMVI melanoma,3.16 µM
same,TGI,PC-3 prostate,5.58 µM
same,TGI,NCI/ADR-RES ovarian,12.5 µM
same,TGI,OVCAR-3 ovarian,3.28 µM
same,TGI,SK-OV-3 ovarian,35.5 µM
same,TGI,UACC-62 melanoma,8.14 µM
same,TGI,SN12C renal,5.65 µM
same,TGI,SW-620 colon,2.18 µM
same,TGI,SNB-75 CNS,32.4 µM
same,TGI,A549 NSCLC,22.6 µM
same,TGI,OVCAR-8 ovarian,4.13 µM
same,TGI,MALME-3M melanoma,9.81 µM
same,TGI,BT-549 breast,4.96 µM
same,TGI,HCT-15 colon,5.04 µM
same,TGI,T-47D breast,9.39 µM
CC1=NN(c2cccc(Cl)c2)C2(C1=Cc1ccc(O)cc1)C(Cl)C(=O)N2c1nc2ccccc2s1 (stereo not drawn),TGI,SR leukemia,57.7 µM
same,TGI,K-562 leukemia,72.7 µM
same,TGI,SK-MEL-5 melanoma,39.8 µM
same,TGI,SK-MEL-2 melanoma,45.9 µM
same,TGI,CAKI-1 renal,85.6 µM
same,TGI,NCI-H460 lung,89.3 µM
same,TGI,MDA-N,64.8 µM
same,TGI,HT29 colon,63.3 µM
same,TGI,SF-539 CNS,> 100 µM
same,TGI,EKVX NSCLC,> 100 µM
same,TGI,ACHN renal,52.7 µM
same,TGI,U251 CNS,49.2 µM
same,TGI,RXF 393 renal,47.9 µM
same,TGI,HOP-62 NSCLC,51.8 µM
same,TGI,CCRF-CEM leukemia,> 100 µM
same,TGI,HCC-2998 colon,35 µM
same,TGI,MDA-MB-435,83.4 µM
same,TGI,UACC-257 melanoma,> 100 µM
same,TGI,UO-31 renal,30.6 µM
same,TGI,MOLT-4 leukemia,44.2 µM
same,TGI,KM12 colon,65 µM
same,TGI,NCI-H522 lung,49 µM
same,TGI,MDA-MB-231 breast,76.1 µM
same,TGI,TK-10 renal,> 100 µM
same,TGI,SF-295 CNS,57 µM
same,TGI,IGROV1 ovarian,65.9 µM
same,TGI,A498 renal,42.5 µM
same,TGI,OVCAR-5 ovarian,> 100 µM
same,TGI,M14 melanoma,58.7 µM
same,TGI,HOP-92 NSCLC,37.5 µM
same,TGI,786-0 renal,80.6 µM
same,TGI,SF-268 CNS,86 µM
same,TGI,HL-60(TB) leukemia,> 100 µM
same,TGI,DU-145 prostate,67.9 µM
same,TGI,SK-MEL-28 melanoma,> 100 µM
same,TGI,RPMI-8226 leukemia,55.8 µM
same,TGI,HS 578T breast,> 100 µM
same,TGI,MCF7 breast,98.4 µM
same,TGI,HCT-116 colon,31.3 µM
same,TGI,NCI-H226 lung,> 100 µM
same,TGI,OVCAR-4 ovarian,> 100 µM
same,TGI,NCI-H23 lung,38.4 µM
same,TGI,LOX IMVI melanoma,47.5 µM
same,TGI,PC-3 prostate,51.9 µM
same,TGI,NCI/ADR-RES ovarian,59.7 µM
same,TGI,OVCAR-3 ovarian,> 100 µM
same,TGI,SK-OV-3 ovarian,57.4 µM
same,TGI,SW-620 colon,34.8 µM
same,TGI,OVCAR-8 ovarian,87.8 µM
same,TGI,HCT-15 colon,32.1 µM
same,TGI,T-47D breast,97.8 µM
